Ends that are not written are not given here. * marks the point of attachment. Propanoyl(3-maleimido) = O=C1C=CC(=O)N1CCC(=O)*
Tests used:
Assay type in all cases: in vivo
CD-1 mice = assay: Dose-response with selected Gly2-GLP-2 analogues (small and large intestine weight); conditions: 5, 25 or 50 μg/dose sc twice daily for 10 days, female CD-1 mice
Method: Six-week-old female CD-1 mice (20-25 g) were treated twice daily for 10 consecutive days with 5, 25 or 50 μg/dose of the compounds of Examples 5, 7 and 8. The compounds were dissolved in 0.083M sodium phosphate buffer, pH 6.8 and administered via subcutaneous injections in the dorsal-lateral area of the lumbar region. Control animals received 0.25 ml/dose of sodium phosphate buffer.
On day 11, fed mice were anesthetized with Halothane™ and small intestine, large intestine and stomach were collected from each mouse after laparatomy. The tissues were then cleaned and weighed.

normal mice = assay: Intestinotrophic activity in normal mice model (small intestine weight); conditions: 5 μg/dose sc twice daily for 10 days, male CD-1 mice; for small intestine weight: vs saline control
Method: The intestinotrophic activity of the compounds of Examples 1-8 has been evaluated in a normal mice model. Five-week-old male CD-1 mice (20-25 g) were treated twice daily for 10 consecutive days with 5 μg/dose of each compound dissolved in 0.9% NaCl aqueous solution. The compounds were administered via subcutaneous injections in the dorsal-lateral area of the lumbar region. Control animals received 0.25 ml/dose of 0.9% NaCl.
On day 11, mice were fasted for 4 hours and anesthetized with CO2 Small intestines were removed, cleaned and weighed.

[1] = Pharmacokinetic profiles in rats (plasma radioimmunoassay); conditions: male, rat, single 500 nmol/kg, Sprague-Dawley rats; for half-life: harmonic mean; for Vd: read-out: Vss; for Tmax: expressed as media; for bioavailability: read-out: F (absolute bioavailability)
Method: The pharmacokinetic profiles of the compounds of Examples 5 and 8 were studied in normal rats following a single intravenous or subcutaneous injection. Plasma concentrations were determined by radioimmunoassay with a commercial antibody anti-human GLP-2.
Test articles were dissolved in 0.083M sodium phosphate buffer, pH 6.8 and administered to eight to eleven-week-old male Sprague-Dawley rats by a single intravenous or subcutaneous injection at a dose level of 500 nmol/kg. Serial blood samples (I50-200 μl) were collected into tubes containing EDTA and DPP-IV inhibitor at the following time-points: pre-dose, 5 and 30 min., and 1, 2, 4, 8, 24, 48, 72 and 96 hours post-test agent administration. Whole blood was centrifuged and subsequent plasma samples were recovered and stored at −80° C. until analysis.
The plasma concentrations of the compounds of Examples 5 and 8 were determined by radioimmunoassay using a rabbit polyclonal antibody anti-human GLP-2 (Peninsula Laboratories, RGG7167) and iodinated human GLP-2 as tracer.
Descriptive pharmacokinetic parameters were determined by standard model-independent methods (Gibaldi and Perrier, 1982) based on the analysis of plasma concentration-time data. Pharmacokinetic analyses were performed using macros written for Microsoft Excel 97. The following parameters were calculated: • Cmax is the maximum plasma concentration; • Tmax is the time when Cmax is observed; • T1/2 is the terminal half-life; • AUC(0-inf) is the area under the plasma concentration-time curve from time zero to time infinity; • F is the absolute bioavailability, • CL is the systemic clearance; • MRT is mean residence time; and • Vss is the steady-state volume of distribution.

rat albumin = target: T1, rat albumin (Rattus norvegicus, UniProt P02770); assay: Immunoblotting of rat plasma for conjugation to plasma proteins
T1 construct: from tissue; host or cells: rat plasma (Sprague-Dawley rats, in vivo conjugation after iv/sc dosing)
Method: Plasma samples obtained from the rat pharmacokinetic study were analyzed by immunoblotting. Plasma proteins were separated under non-reducing conditions using sodium-dodecyl-sulfate polyacrylamide gel electrophoresis (SDS-PAGE) according to Laemmli (1970). Plasma samples were first diluted 1:10 with distilled water and 20 μl was mixed with 10 μl of 3× Laemmli buffer (30 mM TrisCl, 3 mM EDTA, 15% SDS, pH 6.8) and 2 μl of bromophenol blue solution (0.1% bromophenol blue, 50% glycerol). Mixtures were placed in a boiling water bath for 3 min and loaded on gel. Proteins were first concentrated in a 3% stacking gel and then migrated through 8% separating gel using a mini-gel system with 10-well combs (1.5×4.8 mm). Electrophoresis was run under constant current at 15 mA/gel to concentrate proteins in stacking gel and at 20 mA/gel in separating gel for approximately 1.5 h.
Proteins were subsequently transferred onto a nitrocellulose membrane using a semi-dry transfer apparatus, for 1 hour at 100 mA/gel. Transfer efficacy was checked by reversible staining of the membrane with 1% red Ponceau™ solution.
Membranes were saturated overnight at 4° C. with Tris Buffered Saline (TBS) containing 5% low fat milk. […]

T1 sequence (P02770 25-608): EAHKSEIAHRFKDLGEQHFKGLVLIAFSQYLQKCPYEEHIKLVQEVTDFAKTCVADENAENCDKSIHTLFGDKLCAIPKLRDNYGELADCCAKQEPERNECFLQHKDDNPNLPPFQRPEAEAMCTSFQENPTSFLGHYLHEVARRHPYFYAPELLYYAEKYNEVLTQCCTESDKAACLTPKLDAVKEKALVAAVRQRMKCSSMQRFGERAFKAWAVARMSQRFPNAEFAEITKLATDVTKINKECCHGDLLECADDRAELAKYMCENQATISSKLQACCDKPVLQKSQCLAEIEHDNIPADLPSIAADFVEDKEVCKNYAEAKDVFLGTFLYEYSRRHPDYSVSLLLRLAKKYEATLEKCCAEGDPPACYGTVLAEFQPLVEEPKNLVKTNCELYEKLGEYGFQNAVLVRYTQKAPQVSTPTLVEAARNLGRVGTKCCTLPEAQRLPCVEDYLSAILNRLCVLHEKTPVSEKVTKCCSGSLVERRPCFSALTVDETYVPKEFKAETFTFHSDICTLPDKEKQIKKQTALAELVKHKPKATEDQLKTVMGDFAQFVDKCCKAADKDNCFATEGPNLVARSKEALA

| AUC(0-inf) ([1]; IV) | Cmax ([1]; IV) | MRT ([1]; IV) | clearance ([1]; IV) | half-life ([1]; IV) | Vd ([1]; IV) | AUC(0-inf) ([1]; SC) | Cmax ([1]; SC) | Tmax ([1]; SC) | half-life ([1]; SC) | bioavailability ([1]; SC) | conjugation to rat albumin (rat albumin; post-iv administration, anti-GLP-2 immunoblot) | signal on albumin (rat albumin; post-sc administration, anti-GLP-2 immunoblot (not shown)) | Compound | dose-response, large intestine weight (CD-1 mice) | dose-response, small intestine weight (CD-1 mice) | intestinotrophic effects compared to the native GLP-2 peptides of Examples 1 and 3 (normal mice) | small intestine weight (normal mice) |
| --- | --- | --- | --- | --- | --- | --- | --- | --- | --- | --- | --- | --- | --- | --- | --- | --- | --- |
|  |  |  |  |  |  |  |  |  |  |  |  |  | His-Gly-Asp-Gly-Ser-Phe-Ser-Asp-Glu-Met-Asn-Thr-Ile-Leu-Asp-Lys(MPA)-Leu-Ala-Ala-Arg -Asp-Phe-Ile-Asn-Trp-Leu-Ile-Gln-Thr-Lys-Ile-Thr-Asp-CONH2 (HGDGSFSDEMNTILDK(Propanoyl(3-maleimido))LAARDFINWLIQTKITD-NH2; N-terminus assumed; SMILES CC[C@H](C)[C@H](NC(=O)[C@H](Cc1ccccc1)NC(=O)[C@H](CC(=O)O)NC(=O)[C@H](CCCNC(=N)N)NC(=O)[C@H](C)NC(=O)[C@H](C)NC(=O)[C@H](CC(C)C)NC(=O)[C@H](CCCCNC(=O)CCN1C(=O)C=CC1=O)NC(=O)[C@H](CC(=O)O)NC(=O)[C@H](CC(C)C)NC(=O)[C@@H](NC(=O)[C@@H](NC(=O)[C@H](CC(N)=O)NC(=O)[C@H](CCSC)NC(=O)[C@H](CCC(=O)O)NC(=O)[C@H](CC(=O)O)NC(=O)[C@H](CO)NC(=O)[C@H](Cc1ccccc1)NC(=O)[C@H](CO)NC(=O)CNC(=O)[C@H](CC(=O)O)NC(=O)CNC(=O)[C@@H](N)Cc1c[nH]cn1)[C@@H](C)O)[C@@H](C)CC)C(=O)N[C@@H](CC(N)=O)C(=O)N[C@@H](Cc1c[nH]c2ccccc12)C(=O)N[C@@H](CC(C)C)C(=O)N[C@H](C(=O)N[C@@H](CCC(N)=O)C(=O)N[C@H](C(=O)N[C@@H](CCCCN)C(=O)N[C@H](C(=O)N[C@H](C(=O)N[C@@H](CC(=O)O)C(N)=O)[C@@H](C)O)[C@@H](C)CC)[C@@H](C)O)[C@@H](C)CC) [Example 7] | no dose-response | No dose-response | more pronounced intestinotrophic effects | Significant increases |
|  |  |  |  |  |  |  |  |  |  |  |  |  | His-Ala-Asp-Gly-Ser-Phe-Ser-Asp-Glu-Met-Asn-Thr-Ile-Leu-Asp-Asn-Leu-Ala-Ala-Arg-Asp-Phe -Ile-Asn-Trp-Leu-Ile-Gln-Thr-Lys-Ile-Thr-Asp-CONH2 (HADGSFSDEMNTILDNLAARDFINWLIQTKITD-NH2) [Example 1] |  |  |  | Significant increases |
| 0.626 µM·h | 1560 nM | 0.3 h | 13.9 mL/min/kg | 1.5 h | 0.25 L/kg | 0.205 µM·h | 159 nM | 0.5 h | 0.9 h | 32.8% |  |  | CC[C@H](C)[C@H](NC(=O)[C@H](Cc1ccccc1)NC(=O)[C@H](CC(=O)O)NC(=O)[C@H](CCCNC(=N)N)NC(=O)[C@H](C)NC(=O)[C@H](C)NC(=O)[C@H](CC(C)C)NC(=O)[C@H](CC(N)=O)NC(=O)[C@H](CC(=O)O)NC(=O)[C@H](CC(C)C)NC(=O)[C@@H](NC(=O)[C@@H](NC(=O)[C@H](CC(N)=O)NC(=O)[C@H](CCSC)NC(=O)[C@H](CCC(=O)O)NC(=O)[C@H](CC(=O)O)NC(=O)[C@H](CO)NC(=O)[C@H](Cc1ccccc1)NC(=O)[C@H](CO)NC(=O)CNC(=O)[C@H](CC(=O)O)NC(=O)CNC(=O)[C@@H](N)Cc1c[nH]cn1)[C@@H](C)O)[C@@H](C)CC)C(=O)N[C@@H](CC(N)=O)C(=O)N[C@@H](Cc1c[nH]c2ccccc12)C(=O)N[C@@H](CC(C)C)C(=O)N[C@H](C(=O)N[C@@H](CCC(N)=O)C(=O)N[C@H](C(=O)N[C@@H](CCCCN)C(=O)N[C@H](C(=O)N[C@H](C(=O)N[C@@H](CC(=O)O)C(N)=O)[C@@H](C)O)[C@@H](C)CC)[C@@H](C)O)[C@@H](C)CC [Example 5] | no dose-response | No dose-response | more pronounced intestinotrophic effects | Significant increases |
|  |  |  |  |  |  |  |  |  |  |  |  |  | His-Ala-Asp-Gly-Ser-Phe-Ser-Asp-Glu-Met-Asn-Thr-Ile-Leu-Asp-Asn-Leu-Ala-Ala-Arg-Asp-Phe -Ile-Asn-Trp-Leu-Ile-Gln-Thr-Lys-Ile-Thr-Asp-Lys(MPA)-CONH2 (HADGSFSDEMNTILDNLAARDFINWLIQTKITDK; MPA; C-terminal amide; analog of GLP-2; VARIANT (34)...(34): MPA attached to the Lys residue; AMIDATION (34)...(34)) [Example 3] |  |  |  | Significant increases |
| 89.4 µM·h | 10100 nM | 16.9 h | 0.0942 mL/min/kg | 16.2 h | 0.0953 L/kg | 13.5 µM·h | 651 nM | 0.5 h | 23.8 h | 15.2% | conjugates efficiently to rat albumin | weak signal | CC[C@H](C)[C@H](NC(=O)[C@H](Cc1ccccc1)NC(=O)[C@H](CC(=O)O)NC(=O)[C@H](CCCNC(=N)N)NC(=O)[C@H](C)NC(=O)[C@H](C)NC(=O)[C@H](CC(C)C)NC(=O)[C@H](CC(N)=O)NC(=O)[C@H](CC(=O)O)NC(=O)[C@H](CC(C)C)NC(=O)[C@@H](NC(=O)[C@@H](NC(=O)[C@H](CC(N)=O)NC(=O)[C@H](CCSC)NC(=O)[C@H](CCC(=O)O)NC(=O)[C@H](CC(=O)O)NC(=O)[C@H](CO)NC(=O)[C@H](Cc1ccccc1)NC(=O)[C@H](CO)NC(=O)CNC(=O)[C@H](CC(=O)O)NC(=O)CNC(=O)[C@@H](N)Cc1c[nH]cn1)[C@@H](C)O)[C@@H](C)CC)C(=O)N[C@@H](CC(N)=O)C(=O)N[C@@H](Cc1c[nH]c2ccccc12)C(=O)N[C@@H](CC(C)C)C(=O)N[C@H](C(=O)N[C@@H](CCC(N)=O)C(=O)N[C@H](C(=O)N[C@@H](CCCCN)C(=O)N[C@H](C(=O)N[C@H](C(=O)N[C@@H](CC(=O)O)C(=O)N[C@@H](CCCCNC(=O)CCN1C(=O)C=CC1=O)C(N)=O)[C@@H](C)O)[C@@H](C)CC)[C@@H](C)O)[C@@H](C)CC [Example 8] | possible dose-response | possible dose-response | more pronounced intestinotrophic effects | Significant increases |

Reference: patent US7737251B2, “Long lasting glucagon-like peptide 2 (GLP-2) for the treatment of gastrointestinal diseases and disorders” (ConjuChem Biotechnologies Inc., priority 2001, dated 2010)
